# In ChEMBL document CHEMBL4811220, “Investigation of the in vitro and in vivo efficacy of peptoid-based HDAC inhibitors with dual-stage antiplasmodial activity” (Eur J Med Chem, 2021):
# pIC50: −log10 of the molar value. Calls of active or inactive are those of the source. The rule behind the calls is not given here.
# How the values were obtained:
# [1] = Selective index, ratio of IC50 for human HepG2-A16-CD81EGFP cells to IC50 for antiplasmodial activity against liver stage exo-erythrocytic forms of Plasmodium berghei sporozoites infected in human HepG2-A16-CD81EGFP cells
# Histone deacetylase 1 = Histone deacetylase 1 (Homo sapiens, UniProt Q13547)
# Description: Inhibition of C-terminal FLAG/His-tagged human recombinant HDAC1 (1 to 482 residues) expressed in baculovirus infected Sf9 cells using ZMAL (Z-Lys(Ac)-AMC) as fluorogenic substrate incubated for 90 mins by fluorescence based assay
# [2] = Half life in mouse liver microsomes measured upto 40 mins by LC-MS/MS analysis
# Plasmodium berghei [3] = test: (§1) Antimalarial activity against Plasmodium berghei QIMR infected in BALB/c mouse assessed as reduction in peripheral blood parasitemia at 25 mg/kg, po bid for 4 days starting from 2 hrs post infection and measured on 4 to 6 days post-infection by Giemsa staining based microscopic analysis relative to control; type: functional; details: time 4-6 day
# Plasmodium falciparum [4] = test: microbe, parasite or virus in culture; type: functional, organism-based; details: 3D7, Erythrocyte
# [5] = test system: Plasmodium falciparum 3D7; test: Inhibition of HDAC in trophozite-stage of Plasmodium falciparum 3D7 infected in erythrocytes assessed as hyperacetylation of histone H4 at lysine residue at 5 x IC50 incubated for 3 hrs by western blot analysis relative to control; type: cell-based
# [6] = Intrinsic clearance in human liver microsomes measured upto 40 mins by LC-MS/MS analysis; type: ADME, Microsome; details: read-out: CLH
# Plasmodium berghei [7] = test: microbe, parasite or virus in culture; type: functional, organism-based
# [8] = biological target: T1, Protein deacetylase HDAC6 (Homo sapiens, UniProt Q9UBN7); test: biochemical
# T1 sequence (Q9UBN7 whole entry): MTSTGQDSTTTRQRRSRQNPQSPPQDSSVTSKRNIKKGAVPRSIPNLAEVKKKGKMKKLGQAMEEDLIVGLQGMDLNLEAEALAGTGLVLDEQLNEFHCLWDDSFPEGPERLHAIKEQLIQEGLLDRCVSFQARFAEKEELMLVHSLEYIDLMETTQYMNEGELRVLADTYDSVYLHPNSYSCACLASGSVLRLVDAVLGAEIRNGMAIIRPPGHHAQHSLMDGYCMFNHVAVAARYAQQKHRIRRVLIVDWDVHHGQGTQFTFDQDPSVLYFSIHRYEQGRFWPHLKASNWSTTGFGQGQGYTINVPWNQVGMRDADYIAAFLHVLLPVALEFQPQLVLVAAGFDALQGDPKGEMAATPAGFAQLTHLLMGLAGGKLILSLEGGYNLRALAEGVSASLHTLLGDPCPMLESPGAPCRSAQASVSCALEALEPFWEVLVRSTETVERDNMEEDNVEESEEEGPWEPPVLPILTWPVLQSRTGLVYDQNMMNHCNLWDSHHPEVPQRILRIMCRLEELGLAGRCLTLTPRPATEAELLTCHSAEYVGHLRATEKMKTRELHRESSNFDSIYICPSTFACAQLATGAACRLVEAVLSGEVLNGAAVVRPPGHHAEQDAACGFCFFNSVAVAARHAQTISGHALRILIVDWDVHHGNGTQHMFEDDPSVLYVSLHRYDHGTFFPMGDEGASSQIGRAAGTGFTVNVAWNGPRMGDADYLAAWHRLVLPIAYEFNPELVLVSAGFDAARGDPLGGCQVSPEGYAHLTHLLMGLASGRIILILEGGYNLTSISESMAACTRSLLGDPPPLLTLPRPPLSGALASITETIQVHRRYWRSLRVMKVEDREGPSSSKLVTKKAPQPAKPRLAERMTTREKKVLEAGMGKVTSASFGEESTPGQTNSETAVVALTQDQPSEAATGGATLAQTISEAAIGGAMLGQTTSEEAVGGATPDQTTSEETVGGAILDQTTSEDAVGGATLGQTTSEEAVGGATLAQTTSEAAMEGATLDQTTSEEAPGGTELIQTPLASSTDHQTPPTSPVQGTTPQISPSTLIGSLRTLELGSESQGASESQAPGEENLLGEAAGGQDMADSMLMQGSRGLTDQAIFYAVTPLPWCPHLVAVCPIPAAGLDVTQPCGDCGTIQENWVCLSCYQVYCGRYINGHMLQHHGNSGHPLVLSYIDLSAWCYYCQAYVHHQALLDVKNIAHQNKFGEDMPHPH
# Description: Inhibition of N-terminal GST-tagged full length human recombinant HDAC6 expressed in baculovirus infected Sf9 cells using ZMAL (Z-Lys(Ac)-AMC) fluorogenic substrate incubated for 90 mins by fluorescence based assay
# [9] = Half life in human liver microsomes measured upto 40 mins by LC-MS/MS analysis; type: ADME, Microsome
# Plasmodium falciparum [10] = test: Resistance index, ratio of IC50 for antiplasmodial activity against multidrug-resistant asexual intraerythrocytic stage of Plasmodium falciparum Dd2 to IC50 for antiplasmodial activity against drug-sensitive asexual intraerythrocytic stage of Plasmodium falciparum 3D7 infected in human O+ erythrocytes by [3H]-hypoxanthine incorporation assay; type: functional
# HepG2 = test: Cytotoxicity against human HepG2-A16-CD81EGFP cells assessed as inhibition of cell growth incubated for 24 hrs followed by medium transfer and incubation in multimode plate for 48 hrs by CellTiterGlo reagent based luminescence assay
# [11] = Selectivity index, ratio of IC50 for cytotoxicity against human HepG2-A16-CD81EGFP cells to IC50 for antiplasmodial activity against drug-sensitive asexual intraerythrocytic stage of Plasmodium falciparum 3D7 infected in human O+ erythrocytes
# [12] = Intrinsic clearance in mouse liver microsomes measured upto 40 mins by LC-MS/MS analysis
# Plasmodium falciparum [13] = test: Antiplasmodial activity against multidrug-resistant asexual intraerythrocytic stage of Plasmodium falciparum Dd2 assessed as inhibition of parasite growth incubated for 48 hrs followed by addition of [3H]hypoxanthine for 24 hrs by [3H]hypoxanthine incorporation assay; type: functional, organism-based
# Plasmodium berghei [14] = test: as §1, with “10” for “25”, “qd” for “bid”, “post-infection” for “post infection”; details: read-out: INH
# [15] = test system: Plasmodium falciparum 3D7; test: Inhibition of HDAC in trophozite-stage of Plasmodium falciparum 3D7 infected in erythrocytes assessed as hyperacetylation of histone H4 at lysine residue at 5 x IC50 incubated for 3 hrs by western blot analysis; type: cell-based
# [16] = Selectivity index, ratio of IC50 for cytotoxicity against human HepG2-A16-CD81EGFP cells to IC50 for antiplasmodial activity against multidrug-resistant asexual intraerythrocytic stage of Plasmodium falciparum Dd2; type: toxicity, cell-based; details: read-out: Ratio IC50
# Sequence of Histone deacetylase 1 (Q13547 whole entry): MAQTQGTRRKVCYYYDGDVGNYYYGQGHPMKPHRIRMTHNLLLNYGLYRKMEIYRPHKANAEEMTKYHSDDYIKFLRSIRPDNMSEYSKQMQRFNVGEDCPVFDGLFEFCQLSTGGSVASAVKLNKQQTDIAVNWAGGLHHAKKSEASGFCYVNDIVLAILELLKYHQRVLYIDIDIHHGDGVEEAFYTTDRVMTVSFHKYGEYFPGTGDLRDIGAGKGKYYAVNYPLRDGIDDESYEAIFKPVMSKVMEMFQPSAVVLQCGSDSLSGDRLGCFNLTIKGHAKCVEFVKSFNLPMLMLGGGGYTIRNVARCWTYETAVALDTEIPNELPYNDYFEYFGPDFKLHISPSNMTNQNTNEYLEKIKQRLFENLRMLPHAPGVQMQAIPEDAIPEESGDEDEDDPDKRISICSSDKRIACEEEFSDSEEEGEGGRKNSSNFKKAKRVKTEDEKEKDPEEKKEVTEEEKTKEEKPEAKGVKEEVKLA
Compound,selectivity ratio [1],pIC50 (Histone deacetylase 1),half-life at 40 min ([2]; liver microsomes),inhibition in vivo at 25 mg/kg (Plasmodium berghei [3]),pIC50 (Plasmodium falciparum [4]),fold change (FC) [5],microsomal CLint [6],pIC50 (Plasmodium berghei [7]),pIC50 [8],half-life [9],Ratio IC50 (Plasmodium falciparum [10]),pIC50 (HepG2),selectivity ratio [11],microsomal CLint at 40 min [12],pIC50 (Plasmodium falciparum [13]),inhibition in vivo at 10 mg/kg/day (Plasmodium berghei [14]),half-life at 40 min ([2]; microsomes),inhibition [15],selectivity ratio [16]
Cc1ccc(C(=O)N(CC(=O)NCc2ccccc2)Cc2ccc(C(=O)NO)cc2)c(C)c1,23,7.22,44.8 min,17.6%,7.62,2,86 µL/min/mg,6.80,7.22,19.7 min,0.1,5.43,155,38 µL/min/mg,8.52,–,–,–,–
CCN(CC)CCCC(C)Nc1ccnc2cc(Cl)ccc12 (stereo unspecified) [CHLOROQUINE],–,–,–,–,–,–,–,–,–,–,–,–,–,–,–,100%,–,–,–
CC(C)c1ccc(CC(=O)N(CC(=O)NC2CCCCC2)Cc2ccc(C(=O)NO)cc2)cc1,12,5.69,–,–,6.67,–,–,5.69,7.40,–,–,4.60,117,–,–,–,–,–,–
CC(C)c1ccc(C(=O)N(Cc2ccc(C(=O)NO)cc2)C(C)(C)C(=O)NCc2ccccc2)cc1,> 6,6.55,–,–,6.85,–,–,5.06,7.22,–,–,< 4.30,> 352,–,–,–,–,–,–
CN(C)c1ccc(C(=O)N(Cc2ccc(C(=O)NO)cc2)C(C)(C)C(=O)NCc2ccccc2)cc1,> 12,6.36,–,–,6.79,–,–,5.37,7.15,–,–,< 4.30,> 311,–,–,–,–,–,–
Cc1cc(C)cc(C(=O)N(CC(=O)N(C)C)Cc2ccc(C(=O)NO)cc2)c1,–,5.10,–,–,5.98,–,–,5.08,6.64,–,–,< 4.30,> 48,–,–,–,–,–,–
Cc1cc(C)cc(C(=O)N(CC(=O)N2CCCCC2)Cc2ccc(C(=O)NO)cc2)c1,5,5.39,–,–,6.29,–,–,5.18,6.89,–,–,4.46,69,–,–,–,–,–,–
O=C(CCCCCCC(=O)Nc1ccccc1)NO [VORINOSTAT],–,–,–,–,–,–,–,–,–,–,–,5.12,–,–,–,–,–,–,–
O=C(O)Cc1ccccc1Nc1c(Cl)cccc1Cl [DICLOFENAC],–,–,–,–,–,–,248 µL/min/mg,–,–,6.8 min,–,–,–,–,–,–,–,–,–
CC(C)c1ccc(NC(=O)CN(Cc2ccc(C(=O)NO)cc2)C(=O)Cc2ccccc2)cc1,–,–,44.3 min,–,–,–,72 µL/min/mg,–,–,23.5 min,–,–,–,38 µL/min/mg,–,–,–,–,–
O=C(CN(Cc1ccc(C(=O)NO)cc1)C(=O)Cc1ccccc1)NCc1ccccc1,24,6.22,–,–,6.67,–,–,6.04,7.52,–,–,4.66,103,–,–,–,–,–,–
Cn1c(=O)c2c(ncn2C)n(C)c1=O [CAFFEINE],–,–,–,–,–,–,2 µL/min/mg,–,–,1030 min,–,–,–,–,–,–,–,–,–
CC(C)NCC(O)COc1cccc2ccccc12 (stereo unspecified) [PROPRANOLOL],–,–,–,–,–,–,–,–,–,–,–,–,–,–,–,–,54.3 min,–,–
CC(C)c1ccc(C(=O)N(CC(=O)NC23CC4CC(CC(C4)C2)C3)Cc2ccc(C(=O)NO)cc2)cc1,13,6.52,–,–,7.55,–,–,6.47,6.60,–,0.2,5.36,154,–,8.22,–,–,–,–
Cc1ccccc1C(=O)N(CC(=O)NC12CC3CC(CC(C3)C1)C2)Cc1ccc(C(=O)NO)cc1,24,7.00,–,–,6.90,–,–,6.27,7.52,–,–,4.89,102,–,–,–,–,–,–
Cc1ccc(C(=O)N(CC(=O)NC2CCCCC2)Cc2ccc(C(=O)NO)cc2)c(C)c1,139,6.59,17.9 min,31%,8.10,–,139 µL/min/mg,7.22,7.40,12.2 min,0.5,5.08,1040,94 µL/min/mg,8.40,–,–,inactive,–
CC(C)c1ccc(C(=O)N(Cc2ccc(C(=O)NO)cc2)C(C)(C)C(=O)NC2CCCCC2)cc1,> 10,6.01,55.6 min,0.5%,7.00,–,144 µL/min/mg,5.31,6.57,11.7 min,0.3,< 4.30,> 495,30 µL/min/mg,7.48,–,–,inactive,–
CC(C)c1ccc(CC(=O)N(CC(=O)NCc2ccccc2)Cc2ccc(C(=O)NO)cc2)cc1,11,6.11,–,–,7.12,–,–,5.57,7.70,–,0.3,4.52,395,–,7.64,–,–,Active,–
O=C(CN(Cc1ccc(C(=O)NO)cc1)C(=O)Cc1ccccc1)NC1CCCCC1,> 61,5.61,–,–,6.55,–,–,6.09,7.30,–,–,< 4.30,> 178,–,–,–,–,–,–
Cc1ccccc1C(=O)N(CC(=O)NCc1ccccc1)Cc1ccc(C(=O)NO)cc1,32,6.55,–,–,7.15,2,–,6.52,7.52,–,0.3,5.02,137,–,7.68,–,–,–,–
O=C(CN(Cc1ccc(C(=O)NO)cc1)C(=O)c1cccc2ccccc12)NCc1ccccc1,20,6.89,19.3 min,25.9%,7.47,–,41 µL/min/mg,6.20,8.00,41.4 min,0.4,4.89,376,87 µL/min/mg,7.85,–,–,Active,–
CNC(=O)CN(Cc1ccc(C(=O)NO)cc1)C(=O)c1ccc(C(C)C)cc1,19,7.00,271 min,33.3%,7.80,–,5 µL/min/mg,6.32,7.22,347 min,0.1,5.04,573,6 µL/min/mg,8.70,–,–,Active,4580
